Assay results from patent US7119229B2 (priority 2001, dated 2006).
Like-named read-outs stand apart in the source and are kept apart here.

Key:
SKMEL-2 (human melanoma) = assay: SRB cytotoxicity assay, SK-MEL-2; assay type: cell-based; conditions: SK-MEL-2, 72 h, read-out: ED50 SK-MEL-2
Method: (§1) Human tumor cells, including MCF-7 (human breast adenomatous tumor), MCF-7/DOX (adriamycin resistant cell strain), MRS-SA (human uterine sarcoma), MES-SA/DX5 (adriamycin resistant cell strain), A 549 (human non-small cell lung), SKOV-3 (human ovarian), SKMEL-2 (human melanoma), XF-498 (human CNS), HCT-15 (human colon) were incubated at 37° C. in the presence of 5% CO2 using a DMEM culture medium. The respective cells were seeded into each well of 96-well plates at a concentration of 2×10^3˜5×10^3 cells/well. […] Each cell line of the resultant plates was fixed with trichloroacetic acid (TCA), stained with 0.4% SRB solution and rinsed with 1% acetic acid. Thereafter, the dye was dissolved in 10 mM Tris base to measure the optical density (OD) at 520 nm.

TA1537 = assay: Reverse mutation assay (Ames test), TA1537
Method: (§2) This assay is carried out to test mutagenicity of chemical substances using histidine auxotrophic strains that are one of Salmonella Typhimurium mutants. […] When various mutagens are added to the culture medium, only revertants generated by reverse mutation survive.
(§3) Ames test was carried out using […]. […] After incubation, the number of revertant colonies was counted. 3 plates were prepared for each test and the average was calculated.

HCT-15 (human colon) = assay: SRB cytotoxicity assay, HCT15; assay type: cell-based; conditions: HCT-15, 72 h, read-out: ED50 HCT15
Method: as §1

[1] = test system: WP2 uvrA strains (tryptophan auxotrophic strains); assay: Reverse mutation assay (Ames test), E. coli WP2 uvrA
Method: as §2, §3

[2] = test system: A 549 (human non-small cell lung); assay: SRB cytotoxicity assay, A549; assay type: cell-based; conditions: A549, 72 h, read-out: ED50 A549
Method: as §1

[3] = test system: MCF-7/DOX (adriamycin resistant cell strain); assay: SRB cytotoxicity assay, MCF-7/DOX; assay type: cell-based; conditions: Homo sapiens, MCF7-DOX, 72 h, read-out: ED50 MCF-7/DOX
Method: as §1

[4] = test system: MCF-7 (human breast adenomatous tumor); assay: SRB cytotoxicity assay, MCF7; assay type: cell-based; conditions: MCF7, 72 h, read-out: ED50 MCF7
Method: as §1

[5] = test system: BALB/c mouse spleen cells, B cells activated with lipopolysaccharide (LPS); assay: Immunosuppressive effect test using BALB/c mouse spleen cells, LPS (B cells); assay type: cell-based; conditions: 20 μg/ml lipopolysaccharide, 72 hours, MTS, FIGS. 2 and 3
Method: (§4) This test was carried out to determine the immunosuppressive effect of an immunosuppressive candidate material by checking anti-proliferation of T cells and B cells. To identify the proliferation inhibitory extent, responding cells (BALB/c mouse spleen cells) were treated with an immunosuppressive candidate material, lipopolysaccharide (LPS) as a B cell activator and concanvalin A (ConA) as a T cell activator. It is known that the responding cells treated with LPS induce proliferation of B cells and those treated with ConA induce proliferation of T cells.
(§5) Responding cells (BALB/c mouse spleen cells) were seeded into each well of 96-well plates at a concentration of 2×10^5 cells/well. […] After culturing for 72 hours at a CO2 incubator, a 20 μl MTS solution was added to each well, followed by further culturing for 2 to 4 hours and measuring OD at 490 nm using ELISA.

[6] = test system: MES-SA/DX5 (adriamycin resistant cell strain); assay: SRB cytotoxicity assay, MES-SA/DX5; assay type: cell-based; conditions: Homo sapiens, MES-SA/Dx5, 72 h, read-out: ED50 MES-SA/DX5
Method: as §1

TA1535 = conditions: TA1525 (so in the source)
Method: as §2, §3

TA98 = test system: TA98
Method: as §2, §3

TA100 = test system: TA100
Method: as §2, §3

[7] = test system: BALB/c mouse spleen cells, T cells activated with concanvalin A (ConA); assay: Immunosuppressive effect test using BALB/c mouse spleen cells, ConA (T cells); assay type: cell-based; conditions: 2 μg/ml of ConA, 72 hours, MTS, FIGS. 2 and 3
Method: as §4, §5

[8] = test system: BALB/c mouse spleen cell (responding) and DBA/2 mouse spleen cell (stimulating); assay type: cell-based; conditions: MLR, FIG. 1
Method: MLR tests were carried out to determine the immunosuppressive effect of an immunosuppressive candidate material. When a responding cell (BALB/c mouse spleen cell) and a stimulating cell (DBA/2 mouse spleen cell) were cultured separately, the cells grew little. On the contrary, when the cells were simultaneously cultured, the cells were proliferated due to induction of an antigen-antibody reaction. The proliferated cells were treated with the immunosuppressive candidate material for measurement of the proliferation inhibitory extent.
After culturing for 72 hours at a CO2 incubator, a 20 μl MTS solution was added to each well, followed by further culturing for 2 to 4 hours and measuring OD at […] by using ELISA.

Structure (SMILES): COc1cc2c(c(OC)c1OC)-c1ccc(OC)c(=O)cc1[C@@H](NC(=O)c1cccc(CO[N+](=O)[O-])c1)CC2 [Compound 6, 3-nitrooxymethyl-N-(1,2,3,10-tetramethoxy-9-oxo-5,6,7,9-tetrahydro-benzo[a]heptarene-7-yl)-benzamide]
- EC50 (SKMEL-2 (human melanoma)): 0.1 nM
- Colony/Plate S-9 Mixture (+) (TA1537; TA1537, 317.5 μg/Plate): 11 Colony/Plate
- Colony/Plate S-9 Mixture (−) (TA1537; TA1537, 317.5 μg/Plate): 8 Colony/Plate
- Colony/Plate S-9 Mixture (+) (TA1537; TA1537, 625 μg/Plate): 16 Colony/Plate
- Colony/Plate S-9 Mixture (−) (TA1537; TA1537, 625 μg/Plate): 10 Colony/Plate
- Colony/Plate S-9 Mixture (+) (TA1537; TA1537, 1250 μg/Plate): 13 Colony/Plate
- Colony/Plate S-9 Mixture (−) (TA1537; TA1537, 1250 μg/Plate): 16 Colony/Plate
- Colony/Plate S-9 Mixture (+) (TA1537; TA1537, 2500 μg/Plate): 17 Colony/Plate
- Colony/Plate S-9 Mixture (−) (TA1537; TA1537, 2500 μg/Plate): 11 Colony/Plate
- Colony/Plate S-9 Mixture (+) (TA1537; TA1537, 5000 μg/Plate): 14 Colony/Plate
- Colony/Plate S-9 Mixture (−) (TA1537; TA1537, 5000 μg/Plate): 7 Colony/Plate
- EC50 (HCT-15 (human colon)): 0.1 nM
- Colony/Plate S-9 Mixture (+) ([1]; 317.5 μg/Plate): 12 Colony/Plate
- Colony/Plate S-9 Mixture (−) ([1]; 317.5 μg/Plate): 16 Colony/Plate
- Colony/Plate S-9 Mixture (+) ([1]; 625 μg/Plate): 12 Colony/Plate
- Colony/Plate S-9 Mixture (−) ([1]; 625 μg/Plate): 9 Colony/Plate
- Colony/Plate S-9 Mixture (+) ([1]; 1250 μg/Plate): 12 Colony/Plate
- Colony/Plate S-9 Mixture (−) ([1]; 1250 μg/Plate): 10 Colony/Plate
- Colony/Plate S-9 Mixture (+) ([1]; 2500 μg/Plate): 9 Colony/Plate
- Colony/Plate S-9 Mixture (−) ([1]; 2500 μg/Plate): 8 Colony/Plate
- Colony/Plate S-9 Mixture (+) ([1]; 5000 μg/Plate): 13 Colony/Plate
- Colony/Plate S-9 Mixture (−) ([1]; 5000 μg/Plate): 11 Colony/Plate
- EC50 [2]: 0.1 nM
- EC50 [3]: 205 nM
- EC50 [4]: 0.02 nM
- anti-proliferation of B cells [5]: remarkable anti-proliferous effect
- EC50 [6]: 773 nM
- Colony/Plate S-9 Mixture (+) (TA1535; 317.5 μg/Plate): 14 Colony/Plate
- Colony/Plate S-9 Mixture (−) (TA1535; 317.5 μg/Plate): 14 Colony/Plate
- Colony/Plate S-9 Mixture (+) (TA1535; 625 μg/Plate): 12 Colony/Plate
- Colony/Plate S-9 Mixture (−) (TA1535; 625 μg/Plate): 18 Colony/Plate
- Colony/Plate S-9 Mixture (+) (TA1535; 1250 μg/Plate): 11 Colony/Plate
- Colony/Plate S-9 Mixture (−) (TA1535; 1250 μg/Plate): 15 Colony/Plate
- Colony/Plate S-9 Mixture (+) (TA1535; 2500 μg/Plate): 11 Colony/Plate
- Colony/Plate S-9 Mixture (−) (TA1535; 2500 μg/Plate): 10 Colony/Plate
- Colony/Plate S-9 Mixture (+) (TA1535; 5000 μg/Plate): 9 Colony/Plate
- Colony/Plate S-9 Mixture (−) (TA1535; 5000 μg/Plate): 13 Colony/Plate
- Colony/Plate S-9 Mixture (+) (TA98; TA98, 317.5 μg/Plate): 32 Colony/Plate
- Colony/Plate S-9 Mixture (−) (TA98; TA98, 317.5 μg/Plate): 21 Colony/Plate
- Colony/Plate S-9 Mixture (+) (TA98; TA98, 625 μg/Plate): 29 Colony/Plate
- Colony/Plate S-9 Mixture (−) (TA98; TA98, 625 μg/Plate): 32 Colony/Plate
- Colony/Plate S-9 Mixture (+) (TA98; TA98, 1250 μg/Plate): 33 Colony/Plate
- Colony/Plate S-9 Mixture (−) (TA98; TA98, 1250 μg/Plate): 24 Colony/Plate
- Colony/Plate S-9 Mixture (+) (TA98; TA98, 2500 μg/Plate): 22 Colony/Plate
- Colony/Plate S-9 Mixture (−) (TA98; TA98, 2500 μg/Plate): 22 Colony/Plate
- Colony/Plate S-9 Mixture (+) (TA98; TA98, 5000 μg/Plate): 23 Colony/Plate
- Colony/Plate S-9 Mixture (−) (TA98; TA98, 5000 μg/Plate): 19 Colony/Plate
- Colony/Plate S-9 Mixture (+) (TA100; TA100, 317.5 μg/Plate): 96 Colony/Plate
- Colony/Plate S-9 Mixture (−) (TA100; TA100, 317.5 μg/Plate): 81 Colony/Plate
- Colony/Plate S-9 Mixture (+) (TA100; TA100, 625 μg/Plate): 84 Colony/Plate
- Colony/Plate S-9 Mixture (−) (TA100; TA100, 625 μg/Plate): 77 Colony/Plate
- Colony/Plate S-9 Mixture (+) (TA100; TA100, 1250 μg/Plate): 81 Colony/Plate
- Colony/Plate S-9 Mixture (−) (TA100; TA100, 1250 μg/Plate): 84 Colony/Plate
- Colony/Plate S-9 Mixture (+) (TA100; TA100, 2500 μg/Plate): 77 Colony/Plate
- Colony/Plate S-9 Mixture (−) (TA100; TA100, 2500 μg/Plate): 88 Colony/Plate
- Colony/Plate S-9 Mixture (+) (TA100; TA100, 5000 μg/Plate): 78 Colony/Plate
- Colony/Plate S-9 Mixture (−) (TA100; TA100, 5000 μg/Plate): 79 Colony/Plate
- anti-proliferation of T cells [7]: remarkable anti-proliferous effect
- immunosuppressive effect [8]: good immunosuppressive effect
